The source of these data is patent US5550145A, “Potentiation of antimicrobial effects” (Bioglan AB, priority 1992, dated 1996).

Converted amounts (≈) assume the structure as drawn.

In one data set the test system is S. aureus. As to the kind of experiment: MIC (minimum inhibitory concentration) determination. Type of data set: cell-based.
The next data set concerns S. epidermis. The description is as above. In kind it is cell-based.
A further data set concerns C. albicans. The data set is described as above. Type of data set: cell-based.
A further data set deals with T. rubrum. The data set is described as above. Type of data set: cell-based.
The next data set has as its system P. ovale. The description is as above. In kind it is cell-based.
Another data set relates to Gram positive bacteria. The note with it: effects demonstrated only on Gram positive bacteria; cited from earlier work.
For data set [1] the following is noted: generally accepted; cited from earlier work.
In a further data set the test system is aerobic bacteria. Description: Killing effect. Type of data set: cell-based. The note with it: aqueous solutions of tinidazole; test not described. Here is the method:
The composition was prepared as in Example 4. […] In particular, the product is usable for disease states such as acne and seborrhoea.

With `OCCCCCO` [1,5-pentanediol solution, 1,5-pentanediol], the MIC value against S. aureus was determined as 50 mg/mL (≈ 480 mM); in the data set on S. epidermis, 50 mg/mL (≈ 480 mM); with C. albicans, 40 mg/mL (≈ 384 mM); against T. rubrum, 10 mg/mL (≈ 96 mM); against P. ovale, 20 mg/mL (≈ 192 mM).

Turning to `CCCCCCCCCCCC(=O)OCC(O)CO` (stereo not shown) [monolaurin, monoglyceride of lauric acid], in the data set with Gram positive bacteria, the “antimicrobial properties per se” value was “exhibit certain antimicrobial properties”. In addition, the toxicity entry in data set [1] is on record as “completely non-toxic”.

Take `CCCCCCCCCCCCCC(=O)OCC(O)CO` (stereo not shown) [monomyristin, monoglyceride of myristic acid]: the “antimicrobial properties per se” value in the data set with Gram positive bacteria is “exhibit certain antimicrobial properties”. In addition, in data set [1], the toxicity result is given as “completely non-toxic”.

In the case of `CCS(=O)(=O)CCn1c([N+](=O)[O-])cnc1C` [tinidazole], the “effectiveness of aqueous solutions against aerobic bacteria” value in the data set on aerobic bacteria is “not effective”.
